Assay [1] addresses Serine/threonine-protein kinase pim-3 (Homo sapiens) (UniProt Q86V86).
The target in assay [2] is Serine/threonine-protein kinase RIO2 (Homo sapiens) (UniProt Q9BVS4).
For assay [3], the target named is cAMP-dependent protein kinase catalytic subunit alpha (Homo sapiens) (UniProt P17612).
Assay [4] deals with Mitogen-activated protein kinase 6 (Homo sapiens) (UniProt Q16659).
In assay [5] the target is Dual specificity protein kinase CLK1 (Homo sapiens) (UniProt P49759).
Assay [6] deals with Cyclin-dependent kinase 16 (Homo sapiens) (UniProt Q00536).
Assay [7] has as its target Dual specificity protein kinase CLK3 (Homo sapiens) (UniProt P49761).
Assay [8] concerns the target Dual specificity mitogen-activated protein kinase kinase 2 (Homo sapiens, UniProt P36507).
In assay [9] the target is Serine/threonine-protein kinase OSR1 (Homo sapiens) (UniProt O95747).
Sequence of Serine/threonine-protein kinase OSR1 (Homo sapiens) (O95747 2-527 limits assumed): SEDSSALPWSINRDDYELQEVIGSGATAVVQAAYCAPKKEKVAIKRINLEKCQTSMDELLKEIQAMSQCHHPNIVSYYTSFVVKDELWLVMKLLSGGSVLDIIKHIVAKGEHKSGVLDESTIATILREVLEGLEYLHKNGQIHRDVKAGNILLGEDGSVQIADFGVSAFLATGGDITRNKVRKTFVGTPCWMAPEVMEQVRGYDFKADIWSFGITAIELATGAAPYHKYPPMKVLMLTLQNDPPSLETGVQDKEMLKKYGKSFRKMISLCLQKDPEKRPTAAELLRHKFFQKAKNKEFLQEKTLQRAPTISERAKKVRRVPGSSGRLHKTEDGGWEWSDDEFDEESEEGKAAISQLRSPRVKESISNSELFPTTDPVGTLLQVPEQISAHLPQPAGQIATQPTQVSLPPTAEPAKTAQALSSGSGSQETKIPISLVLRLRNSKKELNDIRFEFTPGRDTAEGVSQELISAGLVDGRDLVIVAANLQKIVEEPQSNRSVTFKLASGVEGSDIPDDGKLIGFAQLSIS
For assay [10], the target named is Casein kinase I isoform gamma-3 (Homo sapiens) (UniProt Q9Y6M4).
Sequence of Casein kinase I isoform gamma-3 (Homo sapiens) (Q9Y6M4 whole entry, looked up, canonical isoform): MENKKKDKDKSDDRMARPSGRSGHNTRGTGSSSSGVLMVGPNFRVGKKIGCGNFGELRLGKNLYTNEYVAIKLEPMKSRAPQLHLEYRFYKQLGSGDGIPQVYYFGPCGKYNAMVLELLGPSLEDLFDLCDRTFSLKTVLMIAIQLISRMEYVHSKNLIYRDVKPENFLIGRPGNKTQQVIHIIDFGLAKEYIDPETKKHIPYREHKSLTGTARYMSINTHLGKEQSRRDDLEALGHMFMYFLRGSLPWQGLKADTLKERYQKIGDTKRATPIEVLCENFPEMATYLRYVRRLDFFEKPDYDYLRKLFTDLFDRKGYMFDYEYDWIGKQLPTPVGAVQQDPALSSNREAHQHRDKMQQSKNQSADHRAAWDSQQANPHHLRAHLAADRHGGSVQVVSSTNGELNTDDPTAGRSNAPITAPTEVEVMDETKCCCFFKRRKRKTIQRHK
The target in assay [11] is T1, Serine/threonine-protein kinase PLK4 (Homo sapiens) (UniProt O00444).
T1 sequence (whole entry): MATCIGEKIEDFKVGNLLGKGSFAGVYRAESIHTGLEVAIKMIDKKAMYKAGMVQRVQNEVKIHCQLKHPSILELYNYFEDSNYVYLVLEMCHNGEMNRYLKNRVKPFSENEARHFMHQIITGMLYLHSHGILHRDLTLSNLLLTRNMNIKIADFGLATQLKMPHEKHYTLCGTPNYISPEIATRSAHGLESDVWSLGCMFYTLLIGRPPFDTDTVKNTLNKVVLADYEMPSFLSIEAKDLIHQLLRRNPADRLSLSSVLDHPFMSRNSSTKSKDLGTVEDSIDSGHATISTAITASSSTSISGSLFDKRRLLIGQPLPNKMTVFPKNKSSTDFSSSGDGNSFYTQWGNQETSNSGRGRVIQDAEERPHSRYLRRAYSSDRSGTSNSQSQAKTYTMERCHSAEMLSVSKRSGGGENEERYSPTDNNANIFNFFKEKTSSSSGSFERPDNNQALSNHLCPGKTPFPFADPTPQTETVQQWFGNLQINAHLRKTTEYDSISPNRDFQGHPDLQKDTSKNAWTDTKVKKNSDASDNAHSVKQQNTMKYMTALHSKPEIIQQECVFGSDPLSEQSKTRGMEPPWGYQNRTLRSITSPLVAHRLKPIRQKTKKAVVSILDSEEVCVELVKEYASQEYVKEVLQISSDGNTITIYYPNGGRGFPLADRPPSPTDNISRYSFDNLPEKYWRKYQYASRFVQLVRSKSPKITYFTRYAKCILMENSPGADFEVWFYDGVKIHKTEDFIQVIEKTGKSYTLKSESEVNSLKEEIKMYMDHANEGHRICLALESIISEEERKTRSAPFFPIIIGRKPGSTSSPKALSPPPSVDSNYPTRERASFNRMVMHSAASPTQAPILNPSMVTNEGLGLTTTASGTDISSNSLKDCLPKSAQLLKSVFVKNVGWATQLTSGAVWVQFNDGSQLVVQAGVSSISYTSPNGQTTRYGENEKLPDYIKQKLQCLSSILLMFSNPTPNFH

The target of assay [12] is STE20-like serine/threonine-protein kinase (Homo sapiens) (UniProt Q9H2G2).
Sequence of STE20-like serine/threonine-protein kinase (Homo sapiens) (Q9H2G2 whole entry, looked up): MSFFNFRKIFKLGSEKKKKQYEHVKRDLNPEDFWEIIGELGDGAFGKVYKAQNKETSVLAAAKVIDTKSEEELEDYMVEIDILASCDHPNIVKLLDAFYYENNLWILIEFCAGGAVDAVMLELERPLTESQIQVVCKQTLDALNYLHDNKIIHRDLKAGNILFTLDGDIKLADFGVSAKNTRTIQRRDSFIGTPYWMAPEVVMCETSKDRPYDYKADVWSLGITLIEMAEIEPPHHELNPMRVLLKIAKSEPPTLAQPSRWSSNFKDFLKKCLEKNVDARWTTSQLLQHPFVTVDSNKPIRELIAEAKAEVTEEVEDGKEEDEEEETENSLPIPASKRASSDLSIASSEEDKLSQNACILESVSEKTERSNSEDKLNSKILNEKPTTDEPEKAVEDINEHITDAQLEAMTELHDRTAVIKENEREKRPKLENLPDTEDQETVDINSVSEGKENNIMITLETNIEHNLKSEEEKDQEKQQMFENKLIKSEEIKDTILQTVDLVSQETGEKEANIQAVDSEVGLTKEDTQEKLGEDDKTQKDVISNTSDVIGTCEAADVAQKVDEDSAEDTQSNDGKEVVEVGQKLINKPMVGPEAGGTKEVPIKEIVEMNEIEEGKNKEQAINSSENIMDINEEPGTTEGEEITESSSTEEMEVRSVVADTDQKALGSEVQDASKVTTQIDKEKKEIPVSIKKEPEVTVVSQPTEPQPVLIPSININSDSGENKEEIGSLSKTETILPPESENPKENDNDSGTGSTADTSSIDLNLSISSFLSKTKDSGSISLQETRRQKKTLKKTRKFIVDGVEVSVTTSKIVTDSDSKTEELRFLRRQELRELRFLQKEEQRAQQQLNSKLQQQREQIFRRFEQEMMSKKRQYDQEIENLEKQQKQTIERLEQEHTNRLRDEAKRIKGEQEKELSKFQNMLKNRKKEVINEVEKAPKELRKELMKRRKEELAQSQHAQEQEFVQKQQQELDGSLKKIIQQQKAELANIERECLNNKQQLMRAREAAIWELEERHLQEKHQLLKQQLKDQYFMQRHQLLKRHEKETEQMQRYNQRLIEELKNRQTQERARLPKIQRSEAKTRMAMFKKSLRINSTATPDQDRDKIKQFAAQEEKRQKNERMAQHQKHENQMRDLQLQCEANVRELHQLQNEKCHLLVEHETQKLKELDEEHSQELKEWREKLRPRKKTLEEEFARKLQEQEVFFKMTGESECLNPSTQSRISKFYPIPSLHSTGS
Assay [13] concerns the target T2, Lymphokine-activated killer T-cell-originated protein kinase (Homo sapiens) (UniProt Q96KB5).
T2 sequence (whole entry): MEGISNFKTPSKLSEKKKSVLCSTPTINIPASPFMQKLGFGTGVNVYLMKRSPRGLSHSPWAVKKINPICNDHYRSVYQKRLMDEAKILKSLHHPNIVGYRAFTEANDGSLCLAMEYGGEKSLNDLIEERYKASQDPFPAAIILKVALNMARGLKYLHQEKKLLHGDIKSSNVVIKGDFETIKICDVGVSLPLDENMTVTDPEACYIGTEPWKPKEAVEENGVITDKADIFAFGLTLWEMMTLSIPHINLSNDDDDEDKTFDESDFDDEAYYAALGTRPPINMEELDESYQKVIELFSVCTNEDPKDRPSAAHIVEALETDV

In assay [14] the target is T3, 3-phosphoinositide-dependent protein kinase 1 (Homo sapiens) (UniProt O15530).
T3 sequence (whole entry): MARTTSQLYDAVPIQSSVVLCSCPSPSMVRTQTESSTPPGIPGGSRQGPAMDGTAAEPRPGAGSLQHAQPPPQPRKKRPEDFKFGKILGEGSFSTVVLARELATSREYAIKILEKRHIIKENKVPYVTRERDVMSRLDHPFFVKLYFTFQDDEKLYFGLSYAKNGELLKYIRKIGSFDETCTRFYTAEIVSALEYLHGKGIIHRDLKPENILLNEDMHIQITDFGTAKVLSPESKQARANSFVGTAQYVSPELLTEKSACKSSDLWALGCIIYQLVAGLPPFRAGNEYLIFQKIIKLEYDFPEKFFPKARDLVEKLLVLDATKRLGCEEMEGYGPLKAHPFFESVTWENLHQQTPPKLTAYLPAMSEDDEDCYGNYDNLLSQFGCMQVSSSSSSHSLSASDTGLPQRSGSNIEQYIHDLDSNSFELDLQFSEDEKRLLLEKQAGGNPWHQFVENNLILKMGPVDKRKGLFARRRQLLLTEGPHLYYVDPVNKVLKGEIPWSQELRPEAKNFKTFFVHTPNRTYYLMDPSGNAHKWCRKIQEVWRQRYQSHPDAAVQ

Assay [15] deals with Casein kinase I isoform gamma-2 (Homo sapiens) (UniProt P78368).
Sequence of Casein kinase I isoform gamma-2 (Homo sapiens) (P78368 whole entry, looked up, canonical isoform): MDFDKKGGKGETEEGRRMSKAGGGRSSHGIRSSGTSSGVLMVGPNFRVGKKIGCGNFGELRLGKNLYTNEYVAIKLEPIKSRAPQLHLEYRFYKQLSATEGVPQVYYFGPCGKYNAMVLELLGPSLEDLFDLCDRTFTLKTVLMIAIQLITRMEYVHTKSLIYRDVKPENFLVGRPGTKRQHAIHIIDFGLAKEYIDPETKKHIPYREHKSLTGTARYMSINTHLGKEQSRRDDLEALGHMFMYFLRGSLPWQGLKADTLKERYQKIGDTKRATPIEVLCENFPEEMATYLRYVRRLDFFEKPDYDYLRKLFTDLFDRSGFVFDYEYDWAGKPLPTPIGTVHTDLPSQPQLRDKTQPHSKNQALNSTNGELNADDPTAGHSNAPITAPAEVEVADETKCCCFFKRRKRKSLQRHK
The target of assay [16] is Calcium/calmodulin-dependent protein kinase type 1D (Homo sapiens) (UniProt Q8IU85).
Sequence of Calcium/calmodulin-dependent protein kinase type 1D (Homo sapiens) (Q8IU85 whole entry, looked up): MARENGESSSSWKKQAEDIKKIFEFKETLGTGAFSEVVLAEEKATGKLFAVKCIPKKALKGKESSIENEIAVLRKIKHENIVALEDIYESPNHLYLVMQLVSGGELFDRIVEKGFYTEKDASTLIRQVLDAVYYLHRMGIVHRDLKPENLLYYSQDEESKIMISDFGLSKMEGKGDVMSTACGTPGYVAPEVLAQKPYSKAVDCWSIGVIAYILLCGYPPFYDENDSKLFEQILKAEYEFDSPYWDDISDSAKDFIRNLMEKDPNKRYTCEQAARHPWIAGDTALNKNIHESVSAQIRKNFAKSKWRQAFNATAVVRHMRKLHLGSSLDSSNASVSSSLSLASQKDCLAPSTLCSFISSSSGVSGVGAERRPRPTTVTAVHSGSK
Assay [17] concerns the target Dual specificity protein kinase CLK2 (Homo sapiens) (UniProt P49760).

The text below walks through data of ChEMBL document CHEMBL1145498, “A systematic interaction map of validated kinase inhibitors with Ser/Thr kinases” (Proc Natl Acad Sci U S A, 2007).

Sequence of Serine/threonine-protein kinase RIO2 (Homo sapiens) (Q9BVS4 whole entry, looked up): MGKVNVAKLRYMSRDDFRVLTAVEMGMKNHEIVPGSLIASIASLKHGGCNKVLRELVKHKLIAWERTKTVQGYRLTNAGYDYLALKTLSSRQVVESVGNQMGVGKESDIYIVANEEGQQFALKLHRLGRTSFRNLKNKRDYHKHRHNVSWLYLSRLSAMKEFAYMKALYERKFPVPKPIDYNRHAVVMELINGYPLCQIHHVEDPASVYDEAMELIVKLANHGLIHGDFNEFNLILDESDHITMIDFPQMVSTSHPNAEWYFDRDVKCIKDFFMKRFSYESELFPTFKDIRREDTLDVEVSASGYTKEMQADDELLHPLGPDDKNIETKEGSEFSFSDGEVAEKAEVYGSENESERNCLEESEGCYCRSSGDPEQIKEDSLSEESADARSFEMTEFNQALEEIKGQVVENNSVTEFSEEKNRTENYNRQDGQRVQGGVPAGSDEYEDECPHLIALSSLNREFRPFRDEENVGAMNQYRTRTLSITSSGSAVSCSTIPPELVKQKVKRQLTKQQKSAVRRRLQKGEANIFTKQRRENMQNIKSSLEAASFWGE
Sequence of Dual specificity mitogen-activated protein kinase kinase 2 (P36507 whole entry): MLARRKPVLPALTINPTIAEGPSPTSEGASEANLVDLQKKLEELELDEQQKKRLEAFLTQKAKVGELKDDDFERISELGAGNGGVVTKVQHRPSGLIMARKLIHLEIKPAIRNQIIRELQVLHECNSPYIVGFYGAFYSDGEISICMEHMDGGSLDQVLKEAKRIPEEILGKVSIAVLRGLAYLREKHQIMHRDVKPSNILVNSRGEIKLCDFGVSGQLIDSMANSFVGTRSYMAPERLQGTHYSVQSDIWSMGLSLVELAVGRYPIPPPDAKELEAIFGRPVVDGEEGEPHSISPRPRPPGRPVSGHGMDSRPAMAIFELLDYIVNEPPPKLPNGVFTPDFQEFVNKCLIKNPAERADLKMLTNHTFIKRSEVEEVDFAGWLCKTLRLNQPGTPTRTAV
Sequence of Dual specificity protein kinase CLK1 (Homo sapiens) (P49759 whole entry, looked up): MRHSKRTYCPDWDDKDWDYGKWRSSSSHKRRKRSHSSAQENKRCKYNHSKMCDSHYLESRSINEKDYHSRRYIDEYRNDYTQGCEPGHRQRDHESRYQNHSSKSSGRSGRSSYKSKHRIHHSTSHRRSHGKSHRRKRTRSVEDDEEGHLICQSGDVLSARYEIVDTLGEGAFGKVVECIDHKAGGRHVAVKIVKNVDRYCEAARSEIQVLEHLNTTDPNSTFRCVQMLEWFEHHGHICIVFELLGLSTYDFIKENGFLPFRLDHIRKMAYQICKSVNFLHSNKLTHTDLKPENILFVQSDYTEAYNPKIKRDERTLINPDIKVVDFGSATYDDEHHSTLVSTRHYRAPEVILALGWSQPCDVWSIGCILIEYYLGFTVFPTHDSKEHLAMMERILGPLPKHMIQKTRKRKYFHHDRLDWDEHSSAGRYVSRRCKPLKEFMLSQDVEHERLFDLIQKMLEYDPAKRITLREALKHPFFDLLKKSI
Sequence of Dual specificity protein kinase CLK3 (Homo sapiens) (P49761 whole entry, looked up): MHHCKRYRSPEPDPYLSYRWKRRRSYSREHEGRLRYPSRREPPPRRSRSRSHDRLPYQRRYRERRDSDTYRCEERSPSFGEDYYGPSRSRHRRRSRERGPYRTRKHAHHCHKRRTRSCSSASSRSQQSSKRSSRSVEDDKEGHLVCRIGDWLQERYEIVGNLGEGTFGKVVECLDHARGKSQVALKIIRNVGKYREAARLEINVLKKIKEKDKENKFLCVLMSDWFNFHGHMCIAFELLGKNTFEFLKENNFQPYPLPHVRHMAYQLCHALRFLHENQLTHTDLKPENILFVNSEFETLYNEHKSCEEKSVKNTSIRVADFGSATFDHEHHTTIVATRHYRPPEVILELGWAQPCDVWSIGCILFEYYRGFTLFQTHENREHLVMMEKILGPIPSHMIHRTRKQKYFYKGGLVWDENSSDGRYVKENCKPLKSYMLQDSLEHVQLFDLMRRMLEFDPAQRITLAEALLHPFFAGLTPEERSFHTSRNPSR

Regarding `CN(C)c1ccc(CC2C(=O)Nc3ccccc32)cc1` (stereo unspecified), the shift in melting temperature (ΔTm) in [1] is 1.2 °C; in [2], 0.9 °C; in assay [3] it was 0.2 °C; in [4], 0.1 °C; in assay [5] it was 2 °C; in [6], -0.5 °C. Further, the ΔTm in assay [7] was 0.1 °C; in assay [8], 1.4 °C; in assay [9], -0.6 °C; in [10] it was 0.8 °C; in [11], 2.8 °C; in [12], 0.8 °C. Further, the ΔTm came to 0.1 °C in [13]; 0.3 °C in [14]; 0.8 °C in [15]; 0 °C in assay [16]; 1.7 °C in [17].

Regarding `CN(C)CC1CCn2c(c(C3=C(c4c[nH]c5ccccc45)C(=O)NC3=O)c3ccccc32)C1` (stereo unspecified), the ΔTm worked out at 3.4 °C in [1]; 0.7 °C in assay [2]; 2.2 °C in assay [3]; 0.6 °C in assay [4]; 2 °C in assay [5]; 3 °C in assay [6]. Also, the ΔTm in assay [7] was 0.3 °C; in [8], -0.1 °C; in assay [9] it was -0.4 °C; in [10], 0.8 °C; in assay [11] it was 0.1 °C; in assay [12], 4.2 °C. Besides, the thermal shift (ΔTm) in [13] was -0.8 °C; in assay [14], -0.1 °C; in assay [15] it was 0.3 °C; in assay [16] it was -0.1 °C; in [17], 1.1 °C.

On to `O=Nc1c(-c2c(O)[nH]c3ccccc23)[nH]c2ccccc12`, for which the ΔTm came out at 6.4 °C in assay [1]; 2.6 °C in [2]; 3.8 °C in assay [3]; 0.1 °C in assay [4]; 4 °C in assay [5]; 3.2 °C in [6]. Also, the thermal shift (ΔTm) in assay [7] came to 2.7 °C; in [8], 4.4 °C; in [9], 1.7 °C; in assay [10], 2.7 °C; in assay [11], 8.9 °C; in [12] it was 3.9 °C. Besides, the ΔTm in assay [13] is 0.5 °C; in assay [14], 1.5 °C; in [15], 1.3 °C; in assay [16], 1.1 °C; in [17], 1.5 °C.

Take `Nc1nc(Nc2ccc(S(N)(=O)=O)cc2)nn1C(=S)Nc1c(F)cccc1F`: the thermal shift (ΔTm) is 1.9 °C in assay [1]; -0.4 °C in assay [2]; 4.1 °C in assay [3]; 2.1 °C in assay [4]; 11.5 °C in assay [5]; 10 °C in assay [6]. Moreover, the thermal shift (ΔTm) in assay [7] turned out to be 14.7 °C; in assay [8], 5.1 °C; in assay [9], 5.6 °C; in assay [10], 5.3 °C; in assay [11], 13.1 °C; in [12], 12.1 °C. Besides, the thermal shift (ΔTm) in assay [13] is -0.2 °C; in [14], 0.4 °C; in assay [15], 4.9 °C; in assay [16] it was 3.1 °C; in assay [17], 8.9 °C.

For the compound `O=c1sn(Cc2ccccc2)c(=S)n1Cc1ccccc1`, the thermal shift (ΔTm) was 0.3 °C in assay [1]; 0.1 °C in assay [2]; 0.4 °C in [3]; 0.5 °C in assay [4]; 0.2 °C in assay [5]; -0.4 °C in assay [6]. The ΔTm was -0.3 °C in [7]; 0 °C in [8]; 0.1 °C in [9]; 0.4 °C in assay [10]; -0.2 °C in [11]; 0.4 °C in [12]. The ΔTm in assay [13] is -0.4 °C; in assay [14], 0 °C; in [15], 0.2 °C; in assay [16], 0.1 °C; in assay [17] it was -0.2 °C.

In the case of `NC(=O)c1ccc(-c2nc(-c3ccc4c(c3)OCCO4)c(-c3ccccn3)[nH]2)cc1`, the ΔTm in assay [1] was 0.4 °C; in assay [2], 0.7 °C; in [3] it was -0.3 °C; in assay [4], -0.1 °C; in [5], -0.4 °C; in [6] it was -0.4 °C. Also, the ΔTm in assay [7] was 0.1 °C; in assay [8], -0.1 °C; in assay [9], -0.1 °C; in assay [10], 0.8 °C; in assay [11], 0.1 °C; in [12], -1.1 °C. Moreover, the ΔTm in [13] is -1.4 °C; in [14], -0.1 °C; in assay [15] it was 0.4 °C; in [16] it was 0 °C; in assay [17], -0.3 °C.

With `O=C(O)/C=C/c1cc(CO)ccc1CO`, the ΔTm in assay [1] is 2.2 °C; in [2], 0.4 °C; in assay [3] it was 0.4 °C; in assay [4], 0.3 °C; in [5] it was 0.2 °C; in [6], -0.2 °C. For the same compound, the shift in melting temperature (ΔTm) was 0 °C in assay [7]; -0.1 °C in assay [8]; 0.5 °C in [9]; 0.4 °C in [10]; 1 °C in assay [11]; 0 °C in assay [12]. Also, the ΔTm was determined as 0.8 °C in assay [13]; 0 °C in assay [14]; 0.4 °C in [15]; 0.1 °C in assay [16]; 0.6 °C in assay [17].

Turning to `Cn1cc(C2=C(c3cn(CCCSC(=N)N)c4ccccc34)C(=O)NC2=O)c2ccccc21`, the thermal shift (ΔTm) in assay [1] stood at 7.7 °C; in assay [2], 3.1 °C; in assay [3] it was 4.4 °C; in [4], 0 °C; in [5], 9.6 °C; in assay [6], 5.3 °C. Further, the ΔTm in [7] was 4.1 °C; in assay [8], 0.9 °C; in [9], -0.5 °C; in assay [10] it was 1 °C; in [11], 2.6 °C; in assay [12] it was 10.6 °C. Moreover, the shift in melting temperature (ΔTm) in [13] is -0.1 °C; in [14], 0.1 °C; in [15], 0.7 °C; in assay [16] it was 2 °C; in assay [17], 5.1 °C.
